For data set [1], the system named is colon carcinoma cell line HCT116p53 wild type. Nature of the data set: Crystal violet assay, HCT116p53wt. The class given is cell-based. The note with it: n = 3. The procedure:
(§1) For quantification, cells are treated with crystal violet, a dye that stains proteins. After washing away of excess dye, the remaining crystal violet is dissolved in a sodium citrate solution. The solution is analyzed photometrically at 590 nm. The optical density of this solution depends on the concentration of crystal violet and therefore on the amount of cells. […] To reduce effects of evaporation, only the inner 60 wells of 96-well plates (coated with 0.1% gelatine solution for studies with HUVEC) were used for experiments.
(§2) Cells were treated with 2 μl of the working solution 24 h after seeding. Final compound concentrations in the well were 10 μM for the first round of screening. The final DMSO concentration was 0.5%. […] After finishing the addition of compounds, the T0-plate was stained with crystal violet for giving the cell density at time point zero. […] After air drying of the plates the crystal violet on the cells was dissolved in 100 μl of sodium citrate solution, and the absorption was measured with a plate reader at 590 nm.
(§3) Mean values were corrected with the absorption of stained medium and the corrected absorption of T0 cells. Cell growth was calculated relative to DMSO control for data comparison. IC50 values (50% inhibition of cell growth) were determined with GraphPad Prism® (Version 4.03) using nonlinear regression (sigmoidal dose-response with variable slope). […]

For a further data set, the system named is HUVEC. Put plainly: Cell proliferation assay using crystal violet, HUVEC. It counts as cell-based. The note with it: Homo sapiens. The procedure: as §1
(§4) Cells were seeded at a density of 5 000 cells per well in 100 μl growth medium (HUVEC) or 20 000 (HCT116), 15 000 (SW480 and 518A2) or 10 000 (HT29) cells per well in 200 μl growth medium in 55 wells per plate. 5 wells were filled with medium only. Additionally, a 96-well plate with cells in 12 wells and medium in 6 wells was prepared as T0-plate. The next day, additional 98 μl of growth medium were added in every well (only HUVEC).
(§5) Cells were treated with 2 μl of the working solution 24 h after seeding. Final compound concentrations in the well were 10 μM for the first round of screening. The final DMSO concentration was 0.5%. […] After finishing the addition of compounds, the T0-plate was stained with crystal violet for giving the cell density at time point zero. Before staining, the growth medium was poured away. Wells were filled with 50 μl crystal violet solution for 10 min. Then the staining solution was washed away with water. Since crystal violet is environmentally hazardous the waste was collected and disposed in an appropriate manner. After air drying of the plates the crystal violet on the cells was dissolved in 100 μl of sodium citrate solution, and the absorption was measured with a plate reader at 590 nm.
Mean values were corrected with the absorption of stained medium and the corrected absorption of T0 cells. Cell growth was calculated relative to DMSO control for data comparison.

Data set [2] relates to breast cancer cell line MDA MB231. Nature of the data set: Crystal violet assay, MDA MB231. The class given is cell-based. The note with it: Homo sapiens, MDA-MB-231, n = 3. The procedure: as §1, §2, §3
Data set [3] deals with colon carcinoma cell line HCT116p53ko. Nature of the data set: Crystal violet assay, HCT116p53ko. It counts as cell-based. Conditions: n = 3. The procedure: as §1, §2, §3
The subject of data set [4] is colon cancer cell line HT29. Nature of the data set: Cell proliferation assay using crystal violet, HT29. The class given is cell-based. Conditions: Homo sapiens, HT-29, n = 3, 24 h incubation. The procedure:
as §1, §4, §5, §3

In data set [5] the test system is vascular smooth muscle cells (VSMC). Nature of the data set: Crystal violet assay, VSMC. The class given is cell-based. Conditions: Rattus norvegicus, n = 3. The procedure:
as §1, §2, §3

In data set [6] the test system is melanoma cell line SK-MEL 5. Put plainly: Crystal violet assay, SK-MEL 5. It counts as cell-based. Conditions: Homo sapiens, n = 3. The procedure: as §1, §2, §3
The subject of a further data set is SW480 cells. Put plainly: Cell cycle analysis by flow cytometry. Conditions: 0.03, 0.1 or 0.3 μM compared to DMSO control; FIG. 5. It counts as cell-based. The procedure:
FIG. 5: Cell cycle analysis using SW480 cells treated with 0 μM (control using DMSO), 0.03 μM, 0.1 μM or 0.3 μM of compound 22.
To quantify the cellular DNA content, DNA is visualized by staining with propidium iodide (PI), a fluorescent dye which binds to double stranded DNA. To allow PI to enter cells they are permeabilized with Triton-X. The fluorescence intensity per cell, which correlates with its DNA content, is measured by flow cytometry. The G0/G1 peak represents cells in the usual diploid state. Apoptotic cells are characterized through a peak in the FACS histogram below the G0/G1 peak (sub G1) (Nicoletti I et al. J. Immunol. Methods 1991, 139 (2), 271-279):
Since cells in different phases of the cell cycle have a different DNA content this method can also be used for measuring the amount of cells in different stages of the cell cycle. Cells were seeded in 12-well plates at a density 10 fold more than used in 96-well plates in 2 ml growth media. Cells were incubated for one day, until they reached 50-70% confluence. Then they were stimulated with different concentrations of the test compounds, according to the data available from proliferation assays. […]
Cells were measured by flow cytometry 50-150 events/second with a total of 10 000 events using channel FL2-A. Data were analyzed with CellQuest Pro™. Mean values from different repeats were analyzed using GraphPad Prism® 4.03.

Structures are written as SMILES. Like-named read-outs stand apart in the source and are kept apart here.

These results are taken from patent US20130123367A1, “VINYLOGOUS CHALCONE DERIVATIVES AND THEIR MEDICAL USE” (MEDIZINISCHE UNIVERSITAT WIEN, priority 2010, published 2013).

For `COc1ccccc1/C=C/C=C/C(=O)c1cc(OC)c(OC)c(OC)c1` [Compound 1, 5-(2-Methoxyphenyl)-1-(3′,4′,5′-trimethoxyphenyl)-2,4-pentadiene-1-one], the IC50 is 280 nM in [1]; 340 nM in the data set with HUVEC (n = 3, 48 h incubation, read-out: IC50 (nM) HUVEC (converted)); 280 nM with HUVEC (n = 3, read-out: IC50 (nM) HUVEC (Table 2)); 630 nM in [2]; 100 nM in data set [3]; 540 nM in data set [4]. The results for the IC50 in [5] and in data set [6] were greater than 100000 nM and 150 nM, respectively.

Regarding `CCOc1ccccc1C(=O)/C=C/c1ccc2ccccc2c1` [Compound 22, 3-(2-Naphthyl)-1-(2′-ethoxyphenyl)-2-propene-1-one], the melting point lay in the range of 96 to 97 °C. Further, in the data set with SW480 cells, the ““DNA>4N” portion (inhibition of cell division)” value is “increase” and the ““Sub G1” portion (induction of apoptosis)” value was “increase”.
